Patent publication US20260265199A1, “CRYSTALLINE FORMS OF (R)-2-AMINO-5-(4-(2-(3,5-DIFLUOROPHENYL)-2-HYDROXYACETAMIDO)-2-METHYLPHENYL)-N-ISOPROPYLNICOTINAMIDE AND METHODS FOR USING THE SAME” (HIBERCELL, INC., priority 2023, published 2026)
Where a name gives a salt, the structure may show the parent alone.

Test: Phase 1a study: pharmacokinetics after oral BID dosing in subjects with advanced solid tumors
Type: in vivo, human
Set-up: Increase in mean: scale not given here
Procedure: This example describes a first in human, Phase 1a, multi-center, open-label study to establish the maximum tolerated dose (MTD) and evaluate the safety and tolerability of oral dosing of Form A of the hemi-fumarate salt of the compound of formula (I) (Example 11) in a dose-escalating fashion. Form A of the hemi-fumarate salt was orally administered BID every day with food or within 30 minutes of completing a meal, starting at 25 mg, with doses escalating to 50, 100, 200, 400, 600, and 900 mg BID as safety allows for each 3-week treatment cycle.
Up to 36 qualified subjects at 3 to 5 US sites, who have specific tumor types of renal cell carcinoma (RCC), gastric cancer (GC), metastatic breast cancer (MBC), small cell lung cancer (SCLC), and other solid tumors (e.g., non-small cell lung cancer, colorectal cancer, carcinoma of unknown primary) with the exception of rapidly progressing neoplasms (e.g., pancreatic cancer, glioblastoma, hepatocellular carcinoma) received Form A of the hemi-fumarate salt. Every effort was made to ensure approximately 50% of all subjects enrolled were subjects with RCC and GC. The starting dose level was 25 mg twice daily (BID), escalating to 50, 100, and 200 mg BID as safety allows, following the Bayesian Optimal Interval (BOIN) design. The safety monitoring committee (SMC) evaluated the dose-limiting toxicities (DLTs) and cumulative safety and PK data at the end of each cohort. Based on the SMC recommendations after a comprehensive review of PK and safety data for 200 mg BID dose, higher dose levels were evaluated, starting with 400 mg BID. The dose escalated to 600 mg and then 900 mg following the BOIN design starting with 1 subject at each escalated dose, until the MTD was reached or the sponsor or SMC declares the dose most appropriate for clinical development. This Phase 1a will be expanded into a Phase 1b/2a study through a protocol amendment and will then assess the dose and tumor type(s) selected in Phase 1a as the most appropriate for further clinical development. Subjects were dosed until unacceptable toxicity, disease progression per immune-related Response Evaluation Criteria in Solid Tumors (iRECIST), subject withdrawal, any other administrative reasons, or after 2 years of treatment, whichever occurs first. Efficacy was assessed via Response Evaluation Criteria in Solid Tumors 1.1 (RECIST 1.1); computed tomography (CT) scans were conducted every 6 weeks. Safety, including occurrence of dose-limiting toxicities (DLTs), pharmacokinetics (PK), and biomarker parameters were also assessed.
Form A of the hemi-fumarate salt was orally administered BID with food or within 30 minutes of completing a meal, starting at 25 mg, with doses escalating to 50, 100, 200, 400, 600 and 900 mg BID as safety allowed. Up to 24 subjects were enrolled to ensure 12 subjects completed the study at the estimated MTD of Form A of the hemi-fumarate salt. Dosing occurred in 3-week cycles. Subjects spent Cycle 1/Day 1 (C1D1) in the clinic followed by an overnight stay for safety monitoring and PK sampling. Subjects were hospitalized for administration of first 3 doses: CID1 am and pm doses, and Cycle 1/Day 2 (C1D2) am dose; on Days 8, 15, and 21 the am dose was taken in the clinic after the planned PK samples. All other doses were self administered at home.
Results of Cohorts 1 to 6 the study are detailed in Tables 47-50 below.

[1] = 25 mg single oral dose, Cycle 1 Day 1, geometric mean, N = 3
[2] = 25 mg twice daily oral, Cycle 1 Day 21, geometric mean, N = 3
[3] = 50 mg single oral dose, Cycle 1 Day 1, geometric mean, N = 3
[4] = 50 mg twice daily oral, Cycle 1 Day 21, geometric mean, N = 3
[5] = 100 mg single oral dose, Cycle 1 Day 1, geometric mean, N = 4
[6] = 100 mg twice daily oral, Cycle 1 Day 21, geometric mean, N = 3
[7] = 200 mg single oral dose, Cycle 1 Day 1, geometric mean, N = 5
[8] = 200 mg twice daily oral, Cycle 1 Day 21, geometric mean, N = 4
[9] = 300 mg single oral dose, Cycle 1 Day 1, geometric mean, N = 4
[10] = 300 mg twice daily oral, Cycle 1 Day 21, point estimate, N = 1
[11] = 400 mg single oral dose, Cycle 1 Day 1, geometric mean, N = 3
[12] = 400 mg twice daily oral, Cycle 1 Day 21, geometric mean, N = 2
[13] = 600 mg single oral dose, Cycle 1 Day 1, point estimate, N = 1
[14] = 600 mg twice daily oral, Cycle 1 Day 21, point estimate, N = 1

Cc1cc(NC(=O)[C@H](O)c2cc(F)cc(F)c2)ccc1-c1cnc(N)c(C(=O)NC(C)C)c1 [Form A of the hemi-fumarate salt, (R)-2-amino-5-(4-(2-(3,5-difluorophenyl)-2-hydroxyacetamido)-2-methylphenyl)-N-isopropylnicotinamide]
% AUCextrap [1]: 46.8% | CL/F [1]: 11.4 L/h | DAUC0-12 [1]: 34.0 ng·h/mL/mg | DAUC0-last [1]: 34.0 ng·h/mL/mg | DCmax [1]: 4.79 ng/mL/mg | tlast (25 mg single oral dose, Cycle 1 Day 1, median, N = 3): 12.00 h | ARAUC [2]: 4.84 | CL/F [2]: 6.08 L/h | Ctrough [2]: 359 ng/mL | DAUC0-last [2]: 164 ng·h/mL/mg | DAUC0-τ [2]: 164 ng·h/mL/mg | DCmax [2]: 21.5 ng/mL/mg | % AUCextrap [3]: 51.8% | CL/F [3]: 8.85 L/h | DAUC0-12 [3]: 41.8 ng·h/mL/mg | DAUC0-last [3]: 41.8 ng·h/mL/mg | DCmax [3]: 4.87 ng/mL/mg | tlast (50 mg single oral dose, Cycle 1 Day 1, median, N = 3): 12.00 h | ARAUC [4]: 4.34 | CL/F [4]: 5.51 L/h | Ctrough [4]: 780 ng/mL | DAUC0-last [4]: 181 ng·h/mL/mg | DAUC0-τ [4]: 181 ng·h/mL/mg | DCmax [4]: 19.6 ng/mL/mg | Increase in mean (50 mg vs preceding dose level (25 mg), single oral dose, Cycle 1 Day 1): 2.46 | Increase in mean (50 mg vs preceding dose level (25 mg), twice daily oral, Cycle 1 Day 21): 2.21 | DAUC0-12 [5]: 28.0 ng·h/mL/mg | DAUC0-last [5]: 19.3 ng·h/mL/mg | DCmax [5]: 3.80 ng/mL/mg | tlast (100 mg single oral dose, Cycle 1 Day 1, median, N = 4): 12.00 h | ARAUC [6]: 4.19 | CL/F [6]: 8.53 L/h | Ctrough [6]: 777 ng/mL | DAUC0-last [6]: 117 ng·h/mL/mg | DAUC0-τ [6]: 117 ng·h/mL/mg | DCmax [6]: 13.1 ng/mL/mg | Increase in mean (100 mg vs preceding dose level (50 mg), single oral dose, Cycle 1 Day 1): 1.34 | Increase in mean (100 mg vs preceding dose level (50 mg), twice daily oral, Cycle 1 Day 21): 1.29 | % AUCextrap [7]: 58.7% | CL/F [7]: 11.1 L/h | DAUC0-12 [7]: 29.0 ng·h/mL/mg | DAUC0-last [7]: 29.0 ng·h/mL/mg | DCmax [7]: 4.19 ng/mL/mg | tlast (200 mg single oral dose, Cycle 1 Day 1, median, N = 5): 12.00 h | ARAUC [8]: 4.90 | CL/F [8]: 7.36 L/h | Ctrough [8]: 1860 ng/mL | DAUC0-last [8]: 136 ng·h/mL/mg | DAUC0-τ [8]: 136 ng·h/mL/mg | DCmax [8]: 14.9 ng/mL/mg | Increase in mean (200 mg vs preceding dose level (100 mg), single oral dose, Cycle 1 Day 1): 2.07 | Increase in mean (200 mg vs preceding dose level (100 mg), twice daily oral, Cycle 1 Day 21): 2.32 | % AUCextrap [9]: 30.5% | CL/F [9]: 62.4 L/h | DAUC0-12 [9]: 28.7 ng·h/mL/mg | DAUC0-last [9]: 28.7 ng·h/mL/mg | DCmax [9]: 3.80 ng/mL/mg | tlast (300 mg single oral dose, Cycle 1 Day 1, median, N = 4): 12.00 h | ARAUC [10]: 2.87 | CL/F [10]: 10.5 L/h | Ctrough [10]: 1770 ng/mL | DAUC0-last [10]: 94.8 ng·h/mL/mg | DAUC0-τ [10]: 94.8 ng·h/mL/mg | DCmax [10]: 10.1 ng/mL/mg | Increase in mean (300 mg vs preceding dose level (200 mg), single oral dose, Cycle 1 Day 1): 1.48 | Increase in mean (300 mg vs preceding dose level (200 mg), twice daily oral, Cycle 1 Day 21): 1.05 | % AUCextrap [11]: 33.6% | CL/F [11]: 24.5 L/h | DAUC0-12 [11]: 9.58 ng·h/mL/mg | DAUC0-last [11]: 9.58 ng·h/mL/mg | DCmax [11]: 1.62 ng/mL/mg | tlast (400 mg single oral dose, Cycle 1 Day 1, min-max, N = 3): (12.00-12.00) h | ARAUC [12]: 5.15 | CL/F [12]: 7.82 L/h | Ctrough [12]: 3060 ng/mL | DAUC0-last [12]: 77.0 ng·h/mL/mg | DAUC0-τ [12]: 128 ng·h/mL/mg | DCmax [12]: 9.20 ng/mL/mg | Increase in mean (400 mg vs preceding dose level (300 mg), single oral dose, Cycle 1 Day 1): 0.44 | Increase in mean (400 mg vs preceding dose level (300 mg), twice daily oral, Cycle 1 Day 21): 1.80 | DAUC0-12 [13]: 19.4 ng·h/mL/mg | DAUC0-last [13]: 19.4 ng·h/mL/mg | DCmax [13]: 2.43 ng/mL/mg | tlast [13]: 12.00 h | ARAUC [14]: 5.22 | CL/F [14]: 9.87 L/h | Ctrough [14]: 5680 ng/mL | DAUC0-last [14]: 101 ng·h/mL/mg | DAUC0-τ [14]: 101 ng·h/mL/mg | DCmax [14]: 9.98 ng/mL/mg
